Measured values taken from US10377902B2, “Crystallized red pigment, method of producing a recrystallized red pigment and a method for improving the appearance of or preventing wrinkles” (priority 2013, dated 2019).
Values after ≈ are worked out from the molar mass of the structure shown. “Also recorded” adds a separate entry of the source. Marks after values point to notes of the source that are not given here.

What was measured:
[1] = system: HUVEC (human umbilical vein endothelial cells); assay: Cell proliferation, VEGF-Induced (307900), antagonist mode; type: cell-based; settings: concurrent batch 305353, antagonist, read-out: Concurrent IC50/EC50
Protocol: Measurement of proliferation inhibition activity of VEGF-Induced cell of vascular endothelial cells by purified red pigment from Saw palmetto.
The final concentration in the test was given as 100 μg/mL and 10 μg/mL.
HUVEC cells were incubated in air atmosphere of 5% CO2 at 37° C. The culture medium used was Endothelial Cell Growth Medium with 10% fetal bovine serum (FBS). The medium for assay was
M199 medium supplemented with 10% FBS and 10 μg/mL of Heparin.
Aliquots of HUVEC (1.1×10^5 cells/ well) were pre-seeded in the 96-well TC plate in an incubator at 5% CO2, 37° C. Test compound solution or vehicle (DMSO) was then added per well and incubated at 5% CO2, 37° C. for 20 minutes. Thereafter, VEGF165 (0.2 nM) was added and incubated for 48 hours. 48 hours later, the cells were washed with HBSS once. Then 5 μg/mL of the fluorescence reagent, CalceinAM dye (BD Biosciences, USA) was added and incubated for another 50 minutes. After incubation, fluorescence intensity was detected by Micro plate reader. More than 50% of suppression for VEGF165 induced proliferation was indicated for the significant antagonistic activity of the test reagent.

HuVEC cells = assay: Cytotoxicity / growth of vascular endothelial cells; type: cell-based, human; settings: a few hundred micro mole level
Excerpt: The growth activity of cells under exposure to NYG-1 was detected by using HuVEC cells which is an in vitro cell model. […] Further, suramin was used as a positive control.

HuVECs = assay: Tube formation of HuVECs in the presence of VEGF; type: cell-based, human; settings: 30 μM, not showing cytotoxicity
Protocol: In turn, whether NYG-1 can suppress angiogenesis ability of HuVECs was tested.

[2] = system: Human umbilical vein endothelial cells (HUVEC); assay: Angiogenesis, Tube Formation (Assay#368000): HUVEC tube network on Matrigel; type: cell-based
Protocol: Following biological test results were conducted by Ricerca Bioscience, LLC (http://www.Ricerca.com.) under a contract (Assay#368000, Tumor, Angiogenesis, Tube Formation) with the crystalized red pigment prepared in Example 1.
Human umbilical vein endothelial cells (HUVEC) differentiate to capillary-like structures and form vessel network on Matrigel in the presence of endothelial cell growth supplements. The anti-angiogenic activity of a test compound can be assessed by observing continuity of vessel network compared with untreated control. Test compound (crystallized red pigment prepared in […]) was tested for an effect on anti-angiogenesis at five final concentrations of 100, 10, 1, 0.1 and 0.01 μg/mL.
The crystalized red pigment prepared in Example 1 was dissolved in 100% dimethyl sulfoxide (DMSO) and then diluted with sterile distilled water to obtain solutions of […] in 40% DMSO. The solutions were diluted 100-fold with culture medium to generate final concentrations of 0.01, 0.1, 1, 10 and 100 μg/mL.
HUVEC was purchased from American Type Culture Collection (ATCC CRL-1730). HUVEC cells were incubated in 5% CO2 atmosphere of at 37° C. The culture medium used was Endothelial Cell Growth Medium supplemented with 10v/v % fetal bovine serum and 1% antifungal antibiotic.
Matrigel matrix was thawed, kept on ice at 4° C. and 50μL of the matrix was transferred to each well of a 96-microwell culture plate. The plate was incubated at 37° C. for at least one hour to allow the matrix solution to solidify before treatment.
Aliquots of […] of HUVEC suspension (about 1.5×10^4 cells/well) were placed in the 96-well matrigel plate. Two microliters per well of test compound solution or vehicle (40% DMSO) was then added and incubated at 5% CO2, 37° C. for 18 hours (in duplicate). The final concentration of DMSO was 0.4%. The test compound was evaluated at concentrations of 100, 10, 1, 0.1 and 0.01 μg/mL. At the end of incubation, a tube network formed by endothelial cell in each wells was evaluated by photomicroscopy (magnification of 40×) and photographed. The total length of tube network was measured from each photograph (FIG. 1).
The reduction of the total length of tube network in test compound treatment to the total length of tube network in vehicle treatment control indicates anti-angiogenic activity. The minimum inhibitory concentration (MIC) and 50% inhibition concentration (IC50) were determined to assess effect of the test substance on anti-angiogenesis.

Row | Compound | IC50 [1] [µM] | cytotoxicity on HuVEC cells (HuVEC cells) | blood vessel formation (in words) (HuVECs) | effect on tube formation (in words) ([2]; 30 μM) | effect on tube formation (in words) ([2]; 30 and 15 μM) | IC50 ([2]; Homo sapiens, HUVEC) [µM] | % Inhibition of total tube length (mean ± SEM) ([2]; suramin concentration 1 (head prints μg/mL)) [%] | % Inhibition of total tube length (mean ± SEM) ([2]; suramin concentration 3 (head prints μg/mL)) [%] | % Inhibition of total tube length (mean ± SEM) ([2]; suramin concentration 10 (head prints μg/mL)) [%] | % Inhibition of total tube length (mean ± SEM) ([2]; suramin concentration 15 (head prints μg/mL)) | % Inhibition of total tube length (mean ± SEM) ([2]; suramin concentration 30 (head prints μg/mL)) | MIC (minimum inhibitory concentration) ([2]; tube formation) [µM]
1 | Cc1cc(C)c(/C=C2\C(=O)Nc3ccccc32)[nH]1 [SU5416] | 0.12 | – | – | – | – | – | – | – | – | – | – | –
2 | Cc1ccc(C(=O)Nc2ccc(S(=O)(=O)O)c3cc(S(=O)(=O)O)cc(S(=O)(=O)O)c23)cc1NC(=O)c1cccc(NC(=O)Nc2cccc(C(=O)Nc3cc(C(=O)Nc4ccc(S(=O)(=O)O)c5cc(S(=O)(=O)O)cc(S(=O)(=O)O)c45)ccc3C)c2)c1 [Suramin] | – | strong cytotoxicity | can suppress blood vessel formation | almost no tube formation; also recorded: completely inhibited | significant inhibition | 16 | 3 ± 4 | 4 ± 5 | 8 ± 1 | 42 ± 9^ab % | 100 ± 0^a % | 15 (≈ 19.5 µg/mL)
